This is an account of results in BindingDB's records for doi:10.1021/acs.jmedchem.8b00789 (Laval University, 2018).

What is called EC50 is the midpoint of the concentration-response curve.

A short description of assay [1]: Antagonist activity at UT receptor in Sprague-Dawley rat thoracic aortic ring assessed as reduction in urotensin-2-induced contraction by measuring pEC50 for human urotensin-2-induced contraction at 1 uM pre-incubated for 30 mins before urotensin-2 stimulation (Rvb = 8.59 +/- 0.12 No_unit).
Assay [2] in a line: Antagonist activity at UT receptor in Sprague-Dawley rat thoracic aortic ring assessed as reduction in URP-induced contraction by measuring pEC50 for human urotensin-2-induced contraction at 1 uM pre-incubated for 30 mins before urotensin-2 stimulation (Rvb = 8.16 +/- 0.08 No_unit).
Assay [3] can be described thus: Antagonist activity at UT receptor in Sprague-Dawley rat thoracic aortic ring assessed as reduction in urotensin-2-induced contraction by measuring pEC50 for human urotensin-2-induced contraction at 1 x 10^-8M uM pre-incubated for 30 mins before urotensin-2 stimulation (Rvb = 8.59 +/- 0.12 No_unit).
The nature of assay [4]: Antagonist activity at UT receptor in Sprague-Dawley rat thoracic aortic ring assessed as reduction in URP-induced contraction by measuring pEC50 for human urotensin-2-induced contraction at 1 x 10^-7M pre-incubated for 30 mins before urotensin-2 stimulation (Rvb = 8.16 +/- 0.08 No_unit).
The nature of assay [5]: Antagonist activity at UT receptor in Sprague-Dawley rat thoracic aortic ring assessed as reduction in URP-induced contraction by measuring pEC50 for human urotensin-2-induced contraction at 3 x 10^-10M pre-incubated for 30 mins before urotensin-2 stimulation (Rvb = 8.16 +/- 0.08 No_unit).
Assay [6] in a line: Antagonist activity at UT receptor in Sprague-Dawley rat thoracic aortic ring assessed as reduction in urotensin-2-induced contraction by measuring pEC50 for human urotensin-2-induced contraction at 1 x 10^-7M uM pre-incubated for 30 mins before urotensin-2 stimulation (Rvb = 8.59 +/- 0.12 No_unit).

`CC(C)[C@H](NC(=O)[C@@H]1CSSC[C@H](NC(=O)[C@H](C)N)C(=O)N[C@H](Cc2ccc(I)cc2)C(=O)N[C@@H](Cc2c[nH]c3ccccc23)C(=O)N[C@@H](CCCCN)C(=O)N[C@@H](Cc2ccc(O)cc2)C(=O)N1)C(=O)O`: the values for the EC50 in assay [1] and in assay [2] were 3.2 nM and 13 nM, respectively.

With `CC(C)[C@H](NC(=O)[C@@H]1CSSC[C@H](NC(=O)[C@H](C)N)C(=O)N[C@H](Cc2ccc(C#Cc3ccccc3)cc2)C(=O)N[C@@H](Cc2c[nH]c3ccccc23)C(=O)N[C@@H](CCCCN)C(=O)N[C@@H](Cc2ccc(O)cc2)C(=O)N1)C(=O)O`, the values for the EC50 in assay [1] and in assay [2] were 5.4 nM and 18 nM, respectively.

As to `CC(C)[C@H](NC(=O)[C@@H]1CSSC[C@H](NC(=O)[C@H](C)N)C(=O)N[C@H](Cc2ccc(-c3ccccc3)cc2)C(=O)N[C@@H](Cc2c[nH]c3ccccc23)C(=O)N[C@@H](CCCCN)C(=O)N[C@@H](Cc2ccc(O)cc2)C(=O)N1)C(=O)O`, the EC50 was 6.8 nM in assay [1] and 2.8 nM in assay [2].

Consider `CC(C)[C@H](NC(=O)[C@@H]1CSSC[C@H](NC(=O)[C@H](C)N)C(=O)N[C@@H](Cc2ccc(-c3ccccc3)cc2)C(=O)N[C@@H](Cc2c[nH]c3ccccc23)C(=O)N[C@@H](CCCCN)C(=O)N[C@@H](Cc2ccc(O)cc2)C(=O)N1)C(=O)O`, for which the concentration giving a half-maximal response (EC50) in assay [3] was found to be 7.2 nM; in assay [4], 112 nM; in assay [5] it was 35 nM; in assay [6] it was 17 nM.

Take `CC(C)[C@H](NC(=O)[C@@H]1CSSC[C@H](NC(=O)[C@@H](N)CC(=O)O)C(=O)N[C@H](Cc2ccc(I)cc2)C(=O)N[C@@H](Cc2c[nH]c3ccccc23)C(=O)N[C@@H](CCCCN)C(=O)N[C@@H](Cc2ccc(O)cc2)C(=O)N1)C(=O)O`: the EC50 is 1.1 nM in assay [1] and 12 nM in assay [2].
